Values of other authors in patent publication US20240124437A1, “INJECTABLE LURASIDONE SUSPENSION AND PREPARATION METHOD THEREFOR” (Sichuan Kelun Pharmaceutical Research Institute Co., Ltd., priority 2021, published 2024).

Conditions: oral tablets

oral bioavailability: 9%-19%
SMILES: O=C1[C@@H]2[C@H]3CC[C@H](C3)[C@@H]2C(=O)N1C[C@@H]1CCCC[C@H]1CN1CCN(c2nsc3ccccc23)CC1 [lurasidone]
